# According to ChEMBL document CHEMBL2440076, “New triarylpyrazoles as broad-spectrum anticancer agents: design, synthesis, and biological evaluation” (Eur J Med Chem, 2013):
# Experiments:
# T47D = test: Growth inhibition of human T47D cells assessed as cell growth at 10 uM after 48 hrs by sulforhodamine B assay; assay type: functional; details: read-out: Activity
# PC-3 = test: Growth inhibition of human PC3 cells assessed as cell growth at 10 uM after 48 hrs by sulforhodamine B assay; assay type: functional; details: PC-3, 48 h, read-out: Activity
# CAKI-1 = test: Growth inhibition of human CAKI-1 cells assessed as cell growth at 10 uM after 48 hrs by sulforhodamine B assay; assay type: functional; details: CAKI-1, 48 h, read-out: Activity
# HT-29 = test: Growth inhibition of human HT-29 cells after 48 hrs by sulforhodamine B assay; assay type: functional; details: HT-29, 48 h
# KM12 = test: Growth inhibition of human KM12 cells after 48 hrs by sulforhodamine B assay; assay type: functional, cell-based; details: KM12, 48 h
# COLO 205 = test: Growth inhibition of human COLO205 cells after 48 hrs by sulforhodamine B assay; assay type: functional; details: COLO 205, 48 h
# NCI-H23 = test: Growth inhibition of human NCI-H23 cells after 48 hrs by sulforhodamine B assay; assay type: functional; details: NCI-H23, 48 h
# NCI-H226 = test: Growth inhibition of human NCI-H226 cells after 48 hrs by sulforhodamine B assay; assay type: functional; details: NCI-H226, 48 h
# CCRF-CEM [1] = test: Growth inhibition of human CCRF-CEM cells after 48 hrs by sulforhodamine B assay; assay type: functional
# RXF 393 [2] = test: Growth inhibition of human RXF393 cells assessed as cell growth at 10 uM after 48 hrs by sulforhodamine B assay; assay type: functional; details: RXF 393, 48 h, read-out: Activity
# 786-0 = test: Growth inhibition of human 786-0 cells assessed as cell growth at 10 uM after 48 hrs by sulforhodamine B assay; assay type: functional; details: 786-0, 48 h, read-out: Activity
# A498 = test: Growth inhibition of human A498 cells assessed as cell growth at 10 uM after 48 hrs by sulforhodamine B assay; assay type: functional; details: A498, 48 h, read-out: Activity
# OVCAR-5 [3] = test: Growth inhibition of human OVCAR5 cells assessed as cell growth at 10 uM after 48 hrs by sulforhodamine B assay; assay type: functional; details: OVCAR-5, 48 h, read-out: Activity
# OVCAR-8 = test: Growth inhibition of human OVCAR8 cells assessed as cell growth at 10 uM after 48 hrs by sulforhodamine B assay; assay type: functional; details: OVCAR-8, 48 h, read-out: Activity
# SK-MEL-5 [4] = test: Growth inhibition of human SK-MEL-5 cells assessed as cell growth at 10 uM after 48 hrs by sulforhodamine B assay; assay type: functional; details: SK-MEL-5, 48 h, read-out: Activity
# SK-MEL-2 = test: Growth inhibition of human SK-MEL-2 cells assessed as cell growth at 10 uM after 48 hrs by sulforhodamine B assay; assay type: functional; details: SK-MEL-2, 48 h, read-out: Activity
# Malme-3M = test: Growth inhibition of human MALME-3M cells assessed as cell growth at 10 uM after 48 hrs by sulforhodamine B assay; assay type: functional; details: read-out: Activity
# LOX IMVI = test: Growth inhibition of human LOXIMVI cells assessed as cell growth at 10 uM after 48 hrs by sulforhodamine B assay; assay type: functional; details: read-out: Activity
# U-251 = test: Growth inhibition of human U251 cells assessed as cell growth at 10 uM after 48 hrs by sulforhodamine B assay; assay type: functional; details: U-251, 48 h, read-out: Activity
# HCT-15 = test: Growth inhibition of human HCT15 cells assessed as cell growth at 10 uM after 48 hrs by sulforhodamine B assay; assay type: functional; details: HCT-15, 48 h, read-out: Activity
# [5] = Growth inhibition of human HCC2998 cells assessed as cell growth at 10 uM after 48 hrs by sulforhodamine B assay; assay type: functional; details: HCC 2998, 48 h, read-out: Activity
# NCI-H322M = test: Growth inhibition of human NCI-H322M cells assessed as cell growth at 10 uM after 48 hrs by sulforhodamine B assay; assay type: functional; details: read-out: Activity
# BT-549 = test: Growth inhibition of human BT549 cells after 48 hrs by sulforhodamine B assay; assay type: functional; details: BT-549, 48 h
# MCF7 = test: Growth inhibition of human MCF7 cells after 48 hrs by sulforhodamine B assay; assay type: functional; details: MCF7, 48 h
# DU-145 = test: Growth inhibition of human DU145 cells after 48 hrs by sulforhodamine B assay; assay type: functional; details: DU-145, 48 h
# RXF 393 [6] = test: Growth inhibition of human RXF393 cells after 48 hrs by sulforhodamine B assay; assay type: functional; details: RXF 393, 48 h
# OVCAR-5 [7] = test: Growth inhibition of human OVCAR5 cells after 48 hrs by sulforhodamine B assay; assay type: functional; details: OVCAR-5, 48 h
# SK-MEL-5 [8] = test: Growth inhibition of human SK-MEL-5 cells after 48 hrs by sulforhodamine B assay; assay type: functional; details: SK-MEL-5, 48 h
# UACC-257 = test: Growth inhibition of human UACC257 cells after 48 hrs by sulforhodamine B assay; assay type: functional; details: UACC-257, 48 h
# MDA-MB-435 = test: Growth inhibition of human MDA-MB-435 cells after 48 hrs by sulforhodamine B assay; assay type: functional, cell-based; details: MDA-MB-435, 48 h
# SF-539 = test: Growth inhibition of human SF539 cells after 48 hrs by sulforhodamine B assay; assay type: functional; details: SF-539, 48 h
# HOP-62 = test: Growth inhibition of human HOP62 cells assessed as cell growth at 10 uM after 48 hrs by sulforhodamine B assay; assay type: functional; details: HOP-62, 48 h, read-out: Activity
# A549 = test: Growth inhibition of human A549/ATCC cells assessed as cell growth at 10 uM after 48 hrs by sulforhodamine B assay; assay type: functional; details: A549, 48 h, read-out: Activity
# RPMI-8226 = test: Growth inhibition of human RPMI8226 cells assessed as cell growth at 10 uM after 48 hrs by sulforhodamine B assay; assay type: functional; details: RPMI-8226, 48 h, read-out: Activity
# CCRF-CEM [9] = test: Growth inhibition of human CCRF-CEM cells assessed as cell growth at 10 uM after 48 hrs by sulforhodamine B assay; assay type: functional; details: read-out: Activity
# [10] = read-out: LC50 (the source's name)
smiles,measurement,setting,value
COc1cc(-c2nn(-c3cccc(NC(=O)Nc4cc(C(F)(F)F)cc(C(F)(F)F)c4)c3)cc2-c2ccncc2)ccc1Cl,growth at 10 µM,T47D,4.45%
same,growth at 10 µM,PC-3,-55.2%
same,growth at 10 µM,CAKI-1,18.5%
same,GI50,HT-29,702 nM
same,TGI,HT-29,1610 nM
same,CC50,HT-29; [10],3.71 µM
same,GI50,KM12,531 nM
same,IC50,KM12,530 nM
same,TGI,KM12,1340 nM
same,CC50,KM12; [10],3.39 µM
same,GI50,COLO 205,847 nM
same,LC50 (concentration killing 50% of cells),COLO 205,2910 nM
same,TGI,COLO 205,1570 nM
same,GI50,NCI-H23,1090 nM
same,LC50,NCI-H23,29.6 µM
same,TGI,NCI-H23,3.34 µM
same,GI50,NCI-H226,1360 nM
same,TGI,NCI-H226,21.8 µM
same,CC50,NCI-H226; [10],> 50 µM
same,GI50,CCRF-CEM [1],498 nM
same,LC50,CCRF-CEM [1],> 50 µM
same,TGI,CCRF-CEM [1],2790 nM
same,growth at 10 µM,RXF 393 [2],-68.1%
same,growth at 10 µM,786-0,-71.1%
same,growth at 10 µM,A498,-14.6%
same,growth at 10 µM,OVCAR-5 [3],16.3%
same,growth at 10 µM,OVCAR-8,-12.7%
same,growth at 10 µM,SK-MEL-5 [4],-96.1%
same,growth at 10 µM,SK-MEL-2,-52.1%
same,growth at 10 µM,Malme-3M,-10.7%
same,growth at 10 µM,LOX IMVI,-91.3%
same,growth at 10 µM,U-251,-81.8%
same,growth at 10 µM,HCT-15,2.59%
same,growth at 10 µM,[5],-10.8%
same,growth at 10 µM,NCI-H322M,26.1%
same,GI50,BT-549,1210 nM
same,LC50 (50% lethal concentration),BT-549,29.6 µM
same,TGI,BT-549,3.06 µM
same,GI50,MCF7,933 nM
same,LC50,MCF7,> 50 µM
same,TGI,MCF7,10.9 µM
same,GI50,DU-145,1310 nM
same,LC50,DU-145,21.1 µM
same,TGI,DU-145,5.04 µM
same,GI50,RXF 393 [6],869 nM
same,LC50 (concentration killing 50% of cells),RXF 393 [6],4.9 µM
same,TGI,RXF 393 [6],2060 nM
same,GI50,OVCAR-5 [7],937 nM
same,LC50 (concentration killing 50% of cells),OVCAR-5 [7],12 µM
same,TGI,OVCAR-5 [7],2470 nM
same,GI50,SK-MEL-5 [8],694 nM
same,LC50 (concentration killing 50% of cells),SK-MEL-5 [8],2670 nM
same,TGI,SK-MEL-5 [8],1360 nM
same,GI50,UACC-257,916 nM
same,TGI,UACC-257,2350 nM
same,CC50,UACC-257; [10],26.2 µM
same,GI50,MDA-MB-435,886 nM
same,IC50,MDA-MB-435,890 nM
same,TGI,MDA-MB-435,1990 nM
same,CC50,MDA-MB-435; [10],4.46 µM
same,GI50,SF-539,829 nM
same,LC50 (concentration killing 50% of cells),SF-539,3.54 µM
same,TGI,SF-539,1710 nM
same,growth at 10 µM,HOP-62,-77.6%
same,growth at 10 µM,A549,-23.8%
same,growth at 10 µM,RPMI-8226,-11.7%
same,growth at 10 µM,CCRF-CEM [9],-27.3%
COc1cc(-c2nn(-c3cccc(NC(=O)c4ccc(Br)c(C)c4)c3)cc2-c2ccncc2)ccc1Cl,growth at 10 µM,T47D,70.3%
same,growth at 10 µM,PC-3,59.4%
same,growth at 10 µM,CAKI-1,86.8%
same,growth at 10 µM,RXF 393 [2],41.7%
same,growth at 10 µM,786-0,85.9%
same,growth at 10 µM,A498,68%
same,growth at 10 µM,OVCAR-5 [3],90.7%
same,growth at 10 µM,OVCAR-8,77.3%
same,growth at 10 µM,SK-MEL-5 [4],71%
same,growth at 10 µM,SK-MEL-2,58.2%
same,growth at 10 µM,Malme-3M,52.7%
same,growth at 10 µM,LOX IMVI,75.4%
same,growth at 10 µM,U-251,73.7%
same,growth at 10 µM,HCT-15,67.8%
same,growth at 10 µM,[5],88.2%
same,growth at 10 µM,NCI-H322M,91.7%
same,growth at 10 µM,HOP-62,91.8%
same,growth at 10 µM,A549,78.3%
same,growth at 10 µM,RPMI-8226,64.7%
same,growth at 10 µM,CCRF-CEM [9],74.6%
